The test system of test [1] is U2OS. The test is described as follows: (§1) Here: values are normalized to the positive (DMSO; basel flux = defined as 100% suppression) and negative (250nM Torin1; mTOR inhibitor; maximal inducer of autophagy defined as 0% suppression) control compounds and represented as % of ER-phagy suppression. […] The impact of autophagy induction on cells is complex and depends on the affected target. […] Of note, treatment concentrations may be sub-optimal for specific compounds, leading to false negative annotations. The class given is functional, Homo sapiens. Conditions: Compound Concentration 1 uM, Culturing Media DMEM, 1 % Penicillin/Streptomycin, 10% Fetal bovin serum Add-On: blasticidin, Screening Media Control DMEM, 10% Fetal bovin serum Add-On: 1 µg/ml Doxycyclin, Screening Media Samples DMEM, 10% Fetal bovin serum Add-On: 1 µg/ml Doxycyclin 250nM Torin1.

The test system of test [2] is U2OS. The description is as §1. Conditions: Compound Concentration 1 uM, Culturing Media DMEM, 1 % Penicillin/Streptomycin, 10% Fetal bovin serum Add-On: blasticidin, Screening Media Control DMEM, 10% Fetal bovin serum Add-On: 1 µg/ml Doxycyclin, Screening Media Samples DMEM, 10% Fetal bovin serum Add-On: 1 µg/ml Doxycyclin 250nM Torin1. The class given is functional, Homo sapiens. The source holds these as a separate data set.

As to `O=c1cc(N2CCOCC2)oc2c1ccc1ccccc12`, the ER-phagy suppression is reported as 4.944% with U2OS [1] (Timepoint 12 hours); -13.6038% in the test on U2OS [1] (Timepoint 24 hours); -17.5746% in the test on U2OS [1] (Timepoint 36 hours); -11.078% in the test with U2OS [1] (Timepoint 54 hours); -2.095% in the test on U2OS [2] (Timepoint 12 hours); 14.4083% in the test with U2OS [2] (Timepoint 24 hours). Besides, the ER-phagy suppression in the test on U2OS [2] (Timepoint 36 hours) is listed as 8.467%; with U2OS [2] (Timepoint 60 hours), 13.3057%.

Turning to `NC(=O)c1ccc2[nH]c(-c3ccc(Oc4ccc(Cl)cc4)cc3)nc2c1`, the ER-phagy suppression with U2OS [1] (Timepoint 12 hours) is -2.841%; with U2OS [1] (Timepoint 24 hours), -13.7146%; with U2OS [1] (Timepoint 36 hours), -23.7031%; in the test on U2OS [1] (Timepoint 54 hours) it was -21.3336%; in the test on U2OS [2] (Timepoint 12 hours), -30.239%; with U2OS [2] (Timepoint 24 hours) it was -28.4978%. Besides, the ER-phagy suppression is on record as -29.0961% with U2OS [2] (Timepoint 36 hours) and -19.7873% in the test on U2OS [2] (Timepoint 60 hours).

Consider `COc1cc(Nc2nccc(-c3cnn4nc(OC)ccc34)n2)cc(C(F)(F)F)c1`, for which the ER-phagy suppression in the test with U2OS [1] (Timepoint 12 hours) was 3.334%; in the test on U2OS [1] (Timepoint 24 hours), -9.159%; with U2OS [1] (Timepoint 36 hours) it was -23.3987%; with U2OS [1] (Timepoint 54 hours), -10.034%; in the test with U2OS [2] (Timepoint 12 hours), 6.994%; in the test on U2OS [2] (Timepoint 24 hours), 7.618%. Moreover, the ER-phagy suppression was found to be 14.0346% in the test on U2OS [2] (Timepoint 36 hours) and 17.1827% in the test with U2OS [2] (Timepoint 60 hours).

On to `O=c1cc(N2CCOCC2)oc2c(-c3cccc4c3sc3ccccc34)cccc12`, for which the ER-phagy suppression is given as 29.2209% in the test with U2OS [1] (Timepoint 12 hours); 24.7237% in the test with U2OS [1] (Timepoint 24 hours); 22.7043% in the test with U2OS [1] (Timepoint 36 hours); 31.557% in the test on U2OS [1] (Timepoint 54 hours); 23.1915% with U2OS [2] (Timepoint 12 hours); 21.6983% with U2OS [2] (Timepoint 24 hours). The ER-phagy suppression in the test with U2OS [2] (Timepoint 36 hours) is 3.92%; with U2OS [2] (Timepoint 60 hours), -4.5%.

Regarding `C[C@@H]1CN(CC(=O)Nc2ccc3c(c2)Cc2cccc(-c4cc(=O)cc(N5CCOCC5)o4)c2S3)C[C@H](C)O1`, the ER-phagy suppression in the test with U2OS [1] (Timepoint 12 hours) is 73.6735%; in the test with U2OS [1] (Timepoint 24 hours), 67.8887%; in the test with U2OS [1] (Timepoint 36 hours), 67.4998%; in the test on U2OS [1] (Timepoint 54 hours), 71.8155%; with U2OS [2] (Timepoint 12 hours), 56.3007%; in the test with U2OS [2] (Timepoint 24 hours), 45.431%. Also, the ER-phagy suppression is recorded as 40.5334% in the test with U2OS [2] (Timepoint 36 hours) and 35.1087% in the test on U2OS [2] (Timepoint 60 hours).

Turning to `O=c1[nH]c2ccc(Cl)cc2c(N[C@@H]2CN3CCC2CC3)c1-c1nc2ccccc2[nH]1`, the ER-phagy suppression is 27.312% in the test with U2OS [1] (Timepoint 12 hours); 66.3141% with U2OS [1] (Timepoint 24 hours); 83.8118% with U2OS [1] (Timepoint 36 hours); 95.864% in the test with U2OS [1] (Timepoint 54 hours); -7.286% in the test with U2OS [2] (Timepoint 12 hours); 62.247% with U2OS [2] (Timepoint 24 hours). Besides, the results for the ER-phagy suppression with U2OS [2] (Timepoint 36 hours) and in the test on U2OS [2] (Timepoint 60 hours) were 75.9097% and 86.9183%, respectively.

For `CC(C)C(=O)Nc1n[nH]c2cc(-c3cccc(NS(=O)(=O)C4CC4)c3)ccc12`, the ER-phagy suppression was 3.579% in the test on U2OS [1] (Timepoint 12 hours); -4.784% in the test on U2OS [1] (Timepoint 24 hours); -8.796% in the test on U2OS [1] (Timepoint 36 hours); -3.527% in the test with U2OS [1] (Timepoint 54 hours); 0.1153% in the test on U2OS [2] (Timepoint 12 hours); 4.089% in the test with U2OS [2] (Timepoint 24 hours). Moreover, the ER-phagy suppression in the test on U2OS [2] (Timepoint 36 hours) was -6.11%; in the test on U2OS [2] (Timepoint 60 hours), -14.0127%.

Regarding `O=C(O)CSc1ncnc2cc(-c3cc4ccccc4s3)sc12`, the ER-phagy suppression in the test with U2OS [1] (Timepoint 12 hours) is reported as 0.5897%; in the test with U2OS [1] (Timepoint 24 hours), -12.2442%; in the test on U2OS [1] (Timepoint 36 hours), -19.5389%; with U2OS [1] (Timepoint 54 hours) it was -8.371%; in the test on U2OS [2] (Timepoint 12 hours), -19.6328%; with U2OS [2] (Timepoint 24 hours), -17.1874%. Moreover, the ER-phagy suppression in the test with U2OS [2] (Timepoint 36 hours) is listed as -14.8161%; in the test on U2OS [2] (Timepoint 60 hours), -4.092%.

As to `O=C(NCCCN1CCOC1=O)c1cnc(NCc2cc(Br)ccc2Br)nc1NC1CCCC1`, the ER-phagy suppression in the test with U2OS [1] (Timepoint 12 hours) was -5.816%; with U2OS [1] (Timepoint 24 hours), -18.1911%; in the test on U2OS [1] (Timepoint 36 hours), -20.9165%; with U2OS [1] (Timepoint 54 hours), -12.0292%; in the test with U2OS [2] (Timepoint 12 hours), -10.749%; in the test with U2OS [2] (Timepoint 24 hours), -21.0292%. The ER-phagy suppression in the test with U2OS [2] (Timepoint 36 hours) is listed as -39.1494%; in the test on U2OS [2] (Timepoint 60 hours), -40.5418%.

Consider `O=C(O)CSc1ncnc2sc(-c3cc4ccccc4s3)cc12`, for which the ER-phagy suppression is listed as -2.052% with U2OS [1] (Timepoint 12 hours); -18.7288% in the test with U2OS [1] (Timepoint 24 hours); -21.1701% in the test with U2OS [1] (Timepoint 36 hours); -12.8701% with U2OS [1] (Timepoint 54 hours); -22.3534% in the test on U2OS [2] (Timepoint 12 hours); -5.037% in the test on U2OS [2] (Timepoint 24 hours). Moreover, the ER-phagy suppression is -13.712% with U2OS [2] (Timepoint 36 hours) and -10.482% in the test with U2OS [2] (Timepoint 60 hours).

As for `CCN(Cc1ccc(Cl)cc1)c1ncc(C(=O)NCCCN2CCCC2=O)c(NC2CCCC2)n1`, the ER-phagy suppression in the test on U2OS [1] (Timepoint 12 hours) is recorded as -0.9186%; in the test with U2OS [1] (Timepoint 24 hours), -13.7517%; in the test on U2OS [1] (Timepoint 36 hours), -21.2457%; in the test with U2OS [1] (Timepoint 54 hours) it was -16.9406%; in the test on U2OS [2] (Timepoint 12 hours) it was 19.3372%; in the test with U2OS [2] (Timepoint 24 hours) it was 13.3398%. Further, the figures for the ER-phagy suppression in the test with U2OS [2] (Timepoint 36 hours) and in the test on U2OS [2] (Timepoint 60 hours) were 3.8795% and -6.981%, respectively.

For the compound `O=C(NCc1ccccc1)c1ccc(S(=O)(=O)NCc2ccccc2)cc1`, the ER-phagy suppression in the test on U2OS [1] (Timepoint 12 hours) is 3.538%; with U2OS [1] (Timepoint 24 hours) it was -5.467%; in the test with U2OS [1] (Timepoint 36 hours), -1.304%; with U2OS [1] (Timepoint 54 hours), 10.3755%; in the test with U2OS [2] (Timepoint 12 hours), -6.979%; with U2OS [2] (Timepoint 24 hours) it was -12.761%. Also, the values for the ER-phagy suppression with U2OS [2] (Timepoint 36 hours) and in the test on U2OS [2] (Timepoint 60 hours) were -1.702% and -8.939%, respectively.

In the case of `CN(C)[C@H]1C[C@H](n2cnc(-c3ccc(F)cn3)c2-c2ccnc3[nH]ccc23)C1`, the ER-phagy suppression in the test on U2OS [1] (Timepoint 12 hours) came out at 22.3816%; in the test on U2OS [1] (Timepoint 24 hours) it was 21.0505%; in the test with U2OS [1] (Timepoint 36 hours), 31.8624%; with U2OS [1] (Timepoint 54 hours) it was 38.0418%; in the test on U2OS [2] (Timepoint 12 hours), 23.5482%; in the test on U2OS [2] (Timepoint 24 hours), 2.98%. Further, the ER-phagy suppression in the test with U2OS [2] (Timepoint 36 hours) was found to be 12.4603%; in the test on U2OS [2] (Timepoint 60 hours) it was 17.3235%.

Regarding `Cn1ccc(Cn2cnc(-c3ccc(F)cc3)c2-c2ccnc3[nH]ccc23)n1`, the ER-phagy suppression is listed as 3.096% with U2OS [1] (Timepoint 12 hours); -2.866% in the test on U2OS [1] (Timepoint 24 hours); 1.074% in the test on U2OS [1] (Timepoint 36 hours); 6.853% in the test with U2OS [1] (Timepoint 54 hours); -25.1326% in the test with U2OS [2] (Timepoint 12 hours); -19.5738% in the test with U2OS [2] (Timepoint 24 hours). In addition, the results for the ER-phagy suppression in the test on U2OS [2] (Timepoint 36 hours) and in the test with U2OS [2] (Timepoint 60 hours) were 5.753% and 8.035%, respectively.

Take `CN(C)C1CC(n2cnc(-c3ccc(F)cc3)c2-c2ccnc3[nH]ccc23)C1` (stereo not given): the ER-phagy suppression is recorded as 7.195% with U2OS [1] (Timepoint 12 hours); 4.326% in the test on U2OS [1] (Timepoint 24 hours); 10.3106% in the test on U2OS [1] (Timepoint 36 hours); 11.0097% in the test with U2OS [1] (Timepoint 54 hours); -29.1009% in the test on U2OS [2] (Timepoint 12 hours); -31.4509% in the test on U2OS [2] (Timepoint 24 hours). Further, the values for the ER-phagy suppression with U2OS [2] (Timepoint 36 hours) and with U2OS [2] (Timepoint 60 hours) were -16.9551% and -15.1332%, respectively.
